Like-named read-outs stand apart in the source and are kept apart here. Non-standard residues stand in square brackets, D forms with d. Residues, ends and D or L forms follow the SMILES beside them. *: point of attachment. dMet(O) = CS(=O)CC[C@@H](N)C(=O)O; Lauroyl = CCCCCCCCCCCC(=O)*; Octanoyl = CCCCCCCC(=O)*; NH(CH2)4NH2 = NCCCCN*

The test system of data set [1] is human lung adenocarcinoma cell A549. Kind of data set: MTT cytotoxicity assay, A549. The format is cell-based. An excerpt: (§1) The two human acute lymphoblastic leukemia cells K562 and Kasumi, two human breast adenocarcinoma cells MCF7 and MDA-MB-231, human hepatoma cell HepG-2, human lung adenocarcinoma cell A549, human gastric cancer cell SGC-7901, human colon cancer cell HCT-116, human ovarian cancer cell line SKOV3, or human lung epithelial normal cell 2B were obtained from Beyotime Biotechnology and utilized to test the cytotoxicity of compounds by MTT assays as previous study. The anti-inflammatory effect of the compounds was detected by the influence on the increase in the level of nitric oxide caused by lipopolysaccharide (LPS) based on the classic Griess method. RAW 264.7 cells (Shanghai Institutes for Biological Science) were seeded in 96-well plates and incubated for 24 h. Then, cells were treated with compounds 29, 29a, 31, and 31a (0-80 μM) for 30 min, followed by co-treatment with LPS ([…]) for another 24 h. The Nitric Oxide assay kit with Griess reagents (Beyotime, Lot: S0021, Shanghai, China) was used to examine cellular supernatant nitrite accumulation, which represents cellular NO levels. The OD value of 540 nm absorbance was detected with a microplate reader. Their authentication in the laboratory was performed regularly based on morphology and gene/protein expression. The tested micro-organisms including Gram-negative bacteria E. coli ATCC 35218 and Pseudomonas aeruginosa ATCC 27853, and Gram-positive bacteria Staphylococcus aureus ATCC 29213 and B. subtilis ATCC 6633, and fungi Candida albicans, Rhizoctonia solani and Aspergillus fumigatus were treated with different concentrations of compounds (1 μM, 10 μM, 100 μM) using Bauer-Kirby disk diffusion method to evaluate the antimicrobial activities.
In general terms: Tetrazolium assays rely on reduction of a dye to a coloured formazan, in cell work by metabolically active cells.

Data set [2] deals with human breast adenocarcinoma cells MDA-MB-231. Kind of data set: cells. The format is cell-based.
Source text: as §1

Data set [3] deals with human hepatoma cell HepG-2. The data set is described as follows: cells. The format is cell-based.
Source text: as §1

In data set [4] the test system is human lung epithelial normal cell 2B. Kind of data set: cells. The format is cell-based.
Source text: as §1

The test system of the next data set is PvdQ-like acylase GdnD. The data set is described as follows: Deacylation by acylase GdnD (cell lysate, LC-MS). Format: biochemical, Schlegelella brevitalea DSM 7029. Particulars: 100 μL E. coli cell lysate with GdnD, 5 μL 10 mM substrate, 30 °C; 7 and 8: 4 h, 16 h, 27 h; other substrates 16 h; boiled lysate as control. As for the experimental part:
The hydrolysis function of PvdQ-like acylase GdnD was tested. GdnD is predicted to be a periplasmic protein by PSORTb[13]. The collected pellet from 50 mL LB dissolved with 8 mL buffer C (50 mM Tris, 300 mM NaCl, 5 mM MgCl2, pH 7.6), and lysed by cell disruption. Then, one hundred microliter of the cell lysate was incubated with 5 μL 10 mM substrates 7 and 8 for 4 h, 16 h, and 27 h at 30 °C. The negative control was boiled cell lysate. The other substrates (13, 14, 15, 16, and 17) incubated with the cell lysate dealt for 16 h at 30 °C. Then, the reaction was stopped by the addition of the 100 μL MeOH, and the final mixture was checked by LC‒MS analysis (5%‒95% ACN in 15 min) according to the above condition.

In data set [5] the test system is S. brevitalea DSM 7029 wild type. Kind of data set: Biofilm formation of DSM 7029 wild type with compounds (crystal violet). The format is cell-based, Schlegelella brevitalea DSM 7029. Particulars: relative to wild type treated with H2O = 100%; crystal violet 0.1%, OD600; mean of n = 3. Here is the method: The growth curve was tested by Bioscreen C (Labsystems, Finland) as follow. Overnight culture was inoculated into 400 μL fresh CYMG medium in the ratio of 1:100 (the concentration of compounds was 0.1 μg/μL) and shook in normal speed. The OD600 value was gained in every hour for 42 h in total. Biofilm formation was measured at 18 h and 36 h respectively, as reported previously. In brief, the free-floating cells were removed, and the microtitre plate was washed with PBS (pH 7.4) after incubation for 18 h and 36 h. The biofilm was stained by adding 200 µL of crystal violet (0.1%) solution. Crystal violet solution was removed after 15 min and 200 µL of ethanol (95%) was added. The absorbance at OD600 was read using a microplate reader (Infinite M200, Tecan, Männedorf, Switzerland). Meanwhile, free-floating cells were used to test the secretion of pigment. The bacteria were removed and the supernatant was measured at OD600.

In data set [6] the test system is C13 domain of GdnB fragments and mutants. Kind of data set: Condensation of T12-linked L-Ala with Put or other diamines (yield of 24a-27a, LC-MS). Conditions: Average of n = 3. Format: biochemical, Schlegelella brevitalea DSM 7029. As for the experimental part: In vitro assays for the different enzymes of the C-terminal multi-domains were performed. Reaction buffer contained 80 μM protein, 3 μM Sfp from B. subtilis, 200 μM CoA, 2.5 mM L-Ala and 5 mM ATP was incubated at 30 °C for 30 min. Then, 2.5 mM diamines or polyamines (i.e. putrescine, 1,7-diaminoheptane, 1,6-diaminohexane, 1,5-diaminopentane, 1,2-diaminocyclohexane, spermine, and spermidine, respectively) was added to make final volume of 200 μL. The reaction was further incubated at 30 °C for 1 h or 4 h. Triple amount of cold methanol was added to quench the reaction, and the supernatant was dried by SpeedVac after removed the precipitate at 10,000 × g for 8 min. The reaction mixture was dissolved with 200 μL ddH2O, and then the mixture was derived with D-FDAA according to the procedure of the above Marfey’s analysis. The final reaction mixture was suspended using 100 μL 2 M HCl, which subsequently was dried by SpeedVac. Finally, the mixture dissolved with 100 μL MeOH to detect the target products (24a, 25a, 26a, and 27a) using LC‒MS analysis (5%‒95% ACN in 15 min).

In data set [7] the test system is human ovarian cancer cell line SKOV3. The data set is described as follows: cells. The format is cell-based.
Source text: as §1

In the next data set the test system is tumor lines. Kind of data set: MTT cytotoxicity assay, statements on the whole panel. Format: cell-based, human.
Source text: as §1

The test system of data set [8] is human breast adenocarcinoma cells MCF7. Kind of data set: cells. The format is cell-based. Particulars: Homo sapiens, MCF7; MTT assay; Supplementary Table 11; read-out: IC50 MCF-7.
Source text: as §1

Data set [9] concerns human acute lymphoblastic leukemia cells K562. Kind of data set: cells. The format is cell-based. Conditions: Homo sapiens, K562; MTT assay; Supplementary Table 11; read-out: IC50 K562.
Source text: as §1

For data set [10], the system named is human gastric cancer cell SGC-7901. Kind of data set: cells. The format is cell-based. Conditions: Homo sapiens, SGC-7901; MTT assay; Supplementary Table 11; read-out: IC50 SGC-7901.
Source text: as §1

Data set [11] has as its system human colon cancer cell HCT-116. The data set is described as follows: cells. The format is cell-based. Conditions: Homo sapiens, HCT-116; MTT assay; Supplementary Table 11; read-out: IC50 HCT116.
Source text: as §1

Another data set concerns human cells Kasumi. The data set is described as follows: MTT cytotoxicity assay, Kasumi. Particulars: Homo sapiens; MTT assay; Supplementary Table 11; read-out: IC50 Kasumi. The format is cell-based.
Source text: as §1

For orientation: IC50 means the point on the concentration scale where inhibition reaches its midpoint. `CCCCCCCCCCCC(=O)N[C@H](CC[S+](C)[O-])C(=O)N[C@H](CC(N)=O)C(=O)N1CCC[C@H]1C(=O)N[C@H](C(=O)N[C@H](Cc1ccccc1)C(=O)N1CCC[C@H]1C(=O)N[C@@H](Cc1c[nH]c2ccccc12)C(=O)N[C@@H](C(=O)N[C@@H](C)C(=O)N[C@H](C)C(=O)N[C@@H](CO)C(=O)N[C@@H](C)C(=O)NCCCCN)C(C)C)C(C)C` (some centres unmarked) [Compound 8, Glidonin H] (Lauroyl-[dMet(O)][dN]PV[dF]PW[dV]A[dA]SA-{NH(CH2)4NH2}): the half-maximal inhibitory concentration (IC50) in [1] (24 h), in [2] (24 h), in [3] (24 h) and in data set [4] (24 h) was above 20 µM throughout. For the same compound, the “deacylation by GdnD, nonacylated product by LC-MS” value with PvdQ-like acylase GdnD is “nonacylated products 1 and 2 were detected”. In addition, the “biofilm formation 18 h, Average” value in [5] amounted to 153.143%. In data set [5], the “biofilm formation 36 h, Average” value was 147.847%.

On to `CC(N)C(=O)NCCCCNc1cc(NC(C)C(N)=O)c([N+](=O)[O-])cc1[N+](=O)[O-]` [Compound 24a, L-Ala-Put-FDAA], for which the “L-Ala condensing with Put, 1,5-diaminopentane, 1,6-diaminohexane, and 1,7-diaminoheptane (Relative Yield of product)” value (“L-Ala condensing … (Relative Yield of product)” for short) in data set [6] (protein A12T12) is reported as 100; in data set [6] (protein A12T12C13A*T13), 1640.

In the case of `CC(N)C(=O)NCCCCCNc1cc(NC(C)C(N)=O)c([N+](=O)[O-])cc1[N+](=O)[O-]` (centres unmarked) [Compound 25a], the “L-Ala condensing … (Relative Yield of product)” value in data set [6] (protein A12T12) stood at 100; in [6] (protein A12T12C13A*T13), 794.339.

For `CC(N)C(=O)NCCCCCCCNc1cc(NC(C)C(N)=O)c([N+](=O)[O-])cc1[N+](=O)[O-]` (centres unmarked) [Compound 27a], the “L-Ala condensing … (Relative Yield of product)” value in [6] (protein A12T12) is 100; in data set [6] (protein A12T12C13A*T13), 248.895.

`CCCCCCCC(=O)N[C@@H](CC(C)C)C(=O)N[C@H](C(=O)N[C@@H](Cc1ccc(O)cc1)C(=O)N[C@H](C)C(=O)N[C@@H](C)C(=O)N[C@H](C)C(=O)N[C@H](C(=O)NCCCCN)C(C)C)[C@@H](C)O` [Compound 29] (Octanoyl-LTY[dA]A[dA]V-{NH(CH2)4NH2}): the IC50 in [1] (24 h) was 39.92 ± 0.15 µM; in data set [2] (24 h) it was 110 ± 2.6 µM; in [7] (24 h) it was 81.4 ± 1.02 µM; in data set [3] (24 h), 265.5 ± 2.43 µM; in data set [4] (24 h) it was 102.4 ± 0.25 µM; with tumor lines (24 h), above 40 µM. The “cytotoxic / antitumor activity in words” value in the data set on tumor lines was “higher anti-inflammatory and antitumor activities than 29a and 31a”.

As for `CCCCCCCC(=O)N[C@@H](CC(C)C)C(=O)N[C@H](C(=O)N[C@@H](Cc1ccc(O)cc1)C(=O)N[C@H](C)C(=O)N[C@@H](C)C(=O)N[C@H](C)C(=O)N[C@H](C(=O)O)C(C)C)[C@@H](C)O` [Compound 29a, octanoyl-L-Leu-L-Thr-L-Tyr-D-Ala-L-Ala-D-Ala-L-Val] (Octanoyl-LTY[dA]A[dA]V-OH), the IC50 in data set [1] (24 h) stood at 82.2 ± 2.58 µM; in data set [7] (24 h), 161 ± 3.67 µM; in data set [3] (24 h), 267.5 ± 0.01 µM; in data set [4] (24 h), 269.4 ± 1.23 µM.

As for `CCCCCCCC(=O)N[C@H](C(=O)N[C@@H](Cc1ccccc1)C(=O)N[C@@H](CCC(=O)O)C(=O)N[C@H](C(=O)N[C@@H](C)C(=O)O)[C@@H](C)CC)C(C)C` [Compound 31a] (Octanoyl-VFEIA-OH; C-terminus assumed), the IC50 turned out to be 453.4 ± 0.68 µM in data set [1] (24 h), 200.5 ± 0.07 µM in data set [2] (24 h), 94.29 ± 0.19 µM in [3] (24 h) and 92.26 ± 0.03 µM in data set [4] (24 h). Also, the “IC50 SKOV3” value in data set [7] (MTT assay, Supplementary Table 12, n.s. indicates negative significance) is given as “n.s”.

As to `COc1cccc2c1C(=O)c1c(O)c3c(c(O)c1C2=O)C[C@@](O)(C(=O)CO)C[C@@H]3O[C@H]1C[C@H](N)[C@H](O)[C@H](C)O1` [doxorubicin, reference compound], the IC50 in data set [1] (Homo sapiens, A549, MTT assay, Supplementary Table 11, read-out: IC50 A549) is 0.82 ± 0.25 µM; in data set [1] (Homo sapiens, A549, MTT assay, Supplementary Table 12, read-out: IC50 A549), 0.73 ± 0.05 µM; in data set [2] (Homo sapiens, MDA-MB-231, MTT assay, Supplementary Table 11, read-out: IC50 MDA-MB-231), 0.63 ± 0.07 µM; in data set [2] (Homo sapiens, MDA-MB-231, MTT assay, Supplementary Table 12, n.s. indicates negative significance, read-out: IC50 MDA-MB-231), 0.91 ± 0.05 µM; in data set [7] (Homo sapiens, SK-OV-3, MTT assay, Supplementary Table 12, n.s. indicates negative significance, read-out: IC50 SKOV3), 1.29 ± 0.01 µM; in data set [3] (Homo sapiens, HepG2, MTT assay, Supplementary Table 11, read-out: IC50 HepG2), 3.21 ± 0.67 µM. Also, the IC50 in data set [3] (Homo sapiens, HepG2, MTT assay, Supplementary Table 12, read-out: IC50 HepG-2) was 0.23 ± 0.02 µM; in data set [8], 2.6 ± 0.34 µM; in data set [9] it was 0.79 ± 0.34 µM; in [4] (Homo sapiens, MTT assay, normal cell, Supplementary Table 11, read-out: IC50 2B), 1.32 ± 0.11 µM; in data set [4] (Homo sapiens, MTT assay, normal cell, Supplementary Table 12, read-out: IC50 2B) it was 1.34 ± 0.09 µM; in data set [10] it was 0.14 µM. In addition, the figures for the IC50 (in data set [11]; with human cells Kasumi) were 0.59 ± 0.04 µM and 0.42 ± 0.1 µM, respectively.

Regarding “C14-Rhizomide A [Compound 17, reference compound]”, the “deacylation by GdnD, nonacylated product by LC-MS” value with PvdQ-like acylase GdnD was “could remove myristoyl”.
